Measured values as given in ChEMBL document CHEMBL1144461, “Targeted drug-carrying bacteriophages as antibacterial nanomedicines” (Antimicrob Agents Chemother, 2007).
The source made the active and inactive calls.

Tests used:
Assay type in all cases: functional, organism-based
[1] = system: Escherichia coli; assay: Antibacterial activity against Escherichia coli O78
[2] = system: Streptococcus pyogenes; assay: Antibacterial activity against Streptococcus pyogenes
[3] = system: Staphylococcus aureus; assay: Antibacterial activity against Staphylococcus aureus COL

Measured: Activity

O=C(N[C@H](CO)[C@H](O)c1ccc([N+](=O)[O-])cc1)C(Cl)Cl
active: all assays above
